From patent publication US10597388B2, “Pyridazinone herbicides” (FMC CORPORATION, priority 2014, dated 2020)

Legend:
Test in all cases: Test D controlled growth environment herbicide test, pre- and postemergence
Format in all cases: in vivo
[1] = test system: wheat, spring (spring wheat, Triticum aestivum)
In short: (§1)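 Rating is visual, 0–100 scale (100 = complete control), made against untreated plants 14–21 d after treatment in controlled growth conditions. Postemergence sprays went onto 1- to 4-leaf plants in peat medium; preemergence sprays onto silt loam after sowing; formulation included a surfactant.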

[2] = test system: field poppy (Papaver rhoeas)
In short: as §1

[3] = test system: radish, wild (wild radish, Raphanus raphanistrum)
In short: as §1

[4] = test system: ryegrass, Italian (Italian ryegrass, Lolium multiflorum)
In short: as §1

[5] = test system: speedwell (bird's-eye speedwell, Veronica persica)
In short: as §1

[6] = test system: oat, wild (wild oat, Avena fatua)
In short: as §1

[7] = test system: barley, spring (spring barley, Hordeum vulgare)
In short: as §1

[8] = test system: buckwheat, wild (wild buckwheat, Polygonum convolvulus)
In short: as §1

[9] = test system: deadnettle (henbit deadnettle, Lamium amplexicaule)
In short: as §1

[10] = test system: windgrass (Apera spica-venti)
In short: as §1

[11] = test system: oilseed rape (Brassica napus)
In short: as §1

[12] = test system: canarygrass (Phalaris minor)
In short: as §1

[13] = Postemergence, 31 g ai/ha, scale 0 to 100 (0 no effect, 100 complete control)
[14] = Postemergence, 125 g ai/ha, visual rating on scale 0 (no effect) to 100 (complete control), 14 to 21 d
[15] = Postemergence, 250 g ai/ha, scale 0 to 100 (0 no effect, 100 complete control)
[16] = Preemergence, 62 g ai/ha, scale 0 to 100 (0 no effect, 100 complete control)
[17] = Preemergence, 125 g ai/ha, scale 0 to 100 (0 no effect, 100 complete control)
[18] = Preemergence, 250 g ai/ha, scale 0 to 100, 0 no effect, 100 complete control
[19] = postemergence, 62 g ai/ha, scale 0 to 100, 0 no effect, 100 complete control

CCc1sc2ccc(C)cc2c1-c1c(O)c(C)nn(C)c1=O [Compound 47]
50: Plant response rating, Speedwell [5, 15]
90: Plant response rating, Buckwheat, Wild [8, 14]
75: Plant response rating, Buckwheat, Wild [8, 19] | Plant response rating, Windgrass [10, 18]
25: Plant response rating, Radish, Wild [3, 16] | Plant response rating (scale of 0 to 100), Speedwell ([5]; Preemergence, 31 g ai/ha) | Plant response rating, Speedwell [5, 16]
40: Plant response rating, Speedwell [5, 14] | Plant response rating, Oat, Wild [6, 15] | Plant response rating, Oat, Wild [6, 18]
100: Plant response rating, Field Poppy [2, 14] | Plant response rating, Field Poppy [2, 15] | Plant response rating, Field Poppy [2, 16] | Plant response rating, Field Poppy [2, 17] | Plant response rating, Field Poppy [2, 18] | Plant response rating, Field Poppy [2, 19] | Plant response rating, Radish, Wild [3, 17] | Plant response rating, Speedwell [5, 18] | Plant response rating, Buckwheat, Wild [8, 15]
20: Plant response rating, Radish, Wild [3, 15] | Plant response rating (scale of 0 to 100), Radish, Wild ([3]; Preemergence, 31 g ai/ha) | Plant response rating (scale of 0 to 100), Ryegrass, Italian ([4]; Preemergence, 31 g ai/ha) | Plant response rating, Oat, Wild [6, 14] | Plant response rating, Oat, Wild [6, 16] | Deadnettle plant response rating [9, 13] | Plant response rating, Deadnettle [9, 19] | Plant response rating, Windgrass [10, 17] | Oilseed Rape plant response rating [11, 13] | Plant response rating, Oilseed Rape [11, 19]
5: Plant response rating (scale of 0 to 100), Wheat, Spring ([1]; Preemergence, 31 g ai/ha) | Plant response rating, Wheat, Spring [1, 16] | Radish, Wild plant response rating [3, 13] | Plant response rating, Radish, Wild [3, 14] | Plant response rating, Barley, Spring [7, 16] | Plant response rating (scale of 0 to 100), Windgrass ([10]; Preemergence, 31 g ai/ha) | Plant response rating, Windgrass [10, 16] | Plant response rating, Canarygrass [12, 18]
70: Plant response rating, Ryegrass, Italian [4, 18] | Plant response rating (scale of 0 to 100), Buckwheat, Wild ([8]; Preemergence, 31 g ai/ha) | Plant response rating, Buckwheat, Wild [8, 17] | Plant response rating, Oilseed Rape [11, 15]
60: Plant response rating (scale of 0 to 100), Field Poppy ([2]; Preemergence, 31 g ai/ha) | Plant response rating, Ryegrass, Italian [4, 17] | Buckwheat, Wild plant response rating [8, 13] | Plant response rating, Buckwheat, Wild [8, 16]
15: Plant response rating, Wheat, Spring [1, 14] | Plant response rating, Wheat, Spring [1, 15] | Plant response rating, Wheat, Spring [1, 17] | Plant response rating, Wheat, Spring [1, 18] | Plant response rating, Oat, Wild [6, 19] | Plant response rating, Barley, Spring [7, 17] | Barley, Spring plant response rating [7, 18] | Plant response rating, Windgrass [10, 14] | Plant response rating, Windgrass [10, 15] | Plant response rating, Oilseed Rape [11, 18]
30: Plant response rating, Ryegrass, Italian [4, 14] | Plant response rating, Ryegrass, Italian [4, 16] | Plant response rating, Deadnettle [9, 14] | Plant response rating, Deadnettle [9, 15]
55: Plant response rating, Oilseed Rape [11, 14]
35: Plant response rating, Oat, Wild [6, 17]
80: Field Poppy plant response rating [2, 13] | Plant response rating, Speedwell [5, 17]
45: Plant response rating, Ryegrass, Italian [4, 15]
0: Barley, Spring plant response rating [7, 13] | Plant response rating, Barley, Spring [7, 14] | Plant response rating, Barley, Spring [7, 15] | Plant response rating (scale of 0 to 100), Barley, Spring ([7]; Preemergence, 31 g ai/ha) | Plant response rating, Barley, Spring [7, 19] | Plant response rating (scale of 0 to 100), Deadnettle ([9]; Preemergence, 31 g ai/ha) | Plant response rating (scale of 0 to 100), Oilseed Rape ([11]; Preemergence, 31 g ai/ha) | Plant response rating, Oilseed Rape [11, 16] | Canarygrass plant response rating [12, 13] | Plant response rating, Canarygrass [12, 14] | Plant response rating, Canarygrass [12, 15] | Plant response rating (scale of 0 to 100), Canarygrass ([12]; Preemergence, 31 g ai/ha) | Plant response rating, Canarygrass [12, 16] | Plant response rating, Canarygrass [12, 17] | Plant response rating, Canarygrass [12, 19]
85: Plant response rating, Radish, Wild [3, 18] | Plant response rating, Buckwheat, Wild [8, 18]
65: Plant response rating, Deadnettle [9, 18]
10: Wheat, Spring plant response rating [1, 13] | Plant response rating, Wheat, Spring [1, 19] | Plant response rating, Radish, Wild [3, 19] | Ryegrass, Italian plant response rating [4, 13] | Plant response rating, Ryegrass, Italian [4, 19] | Speedwell plant response rating [5, 13] | Plant response rating, Speedwell [5, 19] | Oat, Wild plant response rating [6, 13] | Plant response rating (scale of 0 to 100), Oat, Wild ([6]; Preemergence, 31 g ai/ha) | Plant response rating, Deadnettle [9, 16] | Plant response rating, Deadnettle [9, 17] | Windgrass plant response rating [10, 13] | Plant response rating, Windgrass [10, 19] | Plant response rating, Oilseed Rape [11, 17]
